Measured values: publication PMC9130233, “An inhibitor of RORγ for chronic pulmonary obstructive disease treatment” (Scientific Reports, 2022)
Marks after values point to notes of the source that are not given here.

Assays:
[1] = system: IL-17 release in human neutrophils; assay: IL-17 release, human neutrophils, PMA + ionomycin; type: cell-based; conditions: Neutrophil, n = 4, read-out: potency, IL-17 release inhibition
Procedure: The human neutrophils were isolated by Ficoll-Hypaque by centrifugation of blood from healthy subjects at 700 g for 30 min, followed by erythrocyte lysis with distilled water for 30 s. Cells were washed in PBS and post 1 h treatment with PCCR-1, cells were stimulated with 50 ng/mL PMA and 2 µg/mL Ionomycin. After 18 h the supernatant was collected for IL-17 estimation by ELISA.

[2] = system: IL-17 in peritoneal macrophages; assay: IL-17 release, mouse peritoneal macrophages, LPS; type: cell-based; conditions: Peritoneal macrophage, n = 2, read-out: IC50, IL-17 inhibition
Procedure: The peritoneal neutrophils or macrophages were isolated from C57BL/6 male mice or BALB/c female mice (6–8 wks; 18–22 g) injected with 3% or 4% thioglycollate broth. After 4 h or 4 days, RPMI medium was injected into the peritoneal cavity of mouse and peritoneal lavage was collected. The lavage was pooled and spun at 800 rpm for 10 min. The pellet was re-suspended in 1X Gey’s solution for 5 min followed by PBS wash. In case of neutrophils, the isolated cells were seeded in 48 well plate for 1.5 h. After 1.5 h, the supernatant containing peritoneal neutrophils were collected and centrifuged at 2000 rpm for 10 min and the pellet were re-suspended in 2% RPMI. In case of isolated peritoneal macrophages, the cells were seeded in 48 well plate for 3–4 h followed by PBS wash. Both the neutrophils and macrophages were treated with PCCR-1 in 2% RPMI for 1 h followed by stimulation with 10 µg/ml or 5 µg/ml of LPS for 18 h or 24 h. The supernatant collected for IL-17 estimation by ELISA.

RXR = assay: TR-FRET selectivity binding assay, RXR
Text: Based on the homology of the ligand binding domains, 3 different isoforms of ROR (hRORα, hRORβ and hRORγ) are reported. Small variations in the LBD regions possibly lead to differences in competitive binding between the nuclear receptors of the ROR isoforms (Fig. 1b). Similar to the assessment of RORγ binding assay, TR-FRET binding assays were also used to assess the affinity of PCCR-1 for other ROR isoforms. […] This was reconfirmed in cellular functional assays for the selected isoforms and nuclear receptors using Gal4 DBD with luciferase reporter system from Indigo (PA, USA). […] In addition, both cellular agonist and antagonist effects as well as for enzyme activity were evaluated with a known reference compound for each target, using a radiolabeled method (Eurofins Cerep, France, Table 1).
For selectivity, the ROR isoforms RORα, FXR, LXRα, LXRβ, RXR, RARα were incubated with compound for 60 min at 22 °C followed by detection mix containing respective agonist (All trans retinoic acid for RARα, T0901317 for LXRα, LXRβ, 9-cis Retinoic acid for RXR, GW-4064 for FXR) and coactivator peptide (FD22 for RORα, PGC1α for RXR, RARα, TRAP220 for LXRα, LXRβ, SRC2-2 for FXR) and Tb-anti GST antibody prepared in assay buffer were added into a 384-well white plate. Reading taken after overnight incubation and the data analysis done as per the protocol mentioned in RORγt-LBD and co-activator ligand binding assay.

[3] = system: IL-22 release in human PBMC; assay: IL-22 release, human PBMC under Th17 polarization conditions; type: cell-based; conditions: human PBMC under Th17 polarization condition
Procedure: An increase in the levels of Th17 dependent cytokine in the peripheral blood of COPD patients as compared to the Th1 and Th2 dependent cytokines has been well documented in a subset of COPD patients. A comparative study was performed under TCR activating conditions to evaluate the potencies of PCCR-1 for inhibition across Th1, Th2 and Th17 dependent cytokines using hPBMCs.
Human whole blood from healthy subjects were procured from Clinical Research Unit, Sanpada. Clinical Research Center Glenmark (Plot No. D, 508, Turbhe, TTC Industrial Area, MIDC, Sanpada, Navi Mumbai, Maharashtra 400705, India). PBMCs were isolated using heparinized blood with Ficoll Histopaque. Briefly, the cells were seeded in 96-well plate pre-coated with human anti-CD3 mAb (10 µg/mL), post 30 min of compound treatment cells were stimulated with human anti-CD28 mAb (2 µg/mL). After 72 h of culture, the supernatant was collected for Th1/Th2 cytokines; IFN-γ, IL-2, IL-4 and IL-10 and measured by ELISA. For Th17 polarization assay, the following cytokine cocktail was used: IL-1β (10 ng/ml), IL-23(10 ng/ml), IL-6 (50 ng/ml), TGF-β1 (3 ng/ml), IL-2 (20U/ml) and supernatants were used for measuring IL-17 and IL-22 by ELISA.

[4] = 14-day dose-range inhalation toxicology study in Sprague Dawley rats; type: in vivo, rat
Procedure: Rats were exposed to PCCR-1 aerosols at 3.4, 10.8 and 32.1 mg/kg/day (delivered dose) for 60 min daily for 14 days using a snout only exposure technique via a modular stainless steel flow past inhalation chamber at indicated doses as mentioned in Table 3. No treatment-related findings noted, including myeloid:erythroid (M:E) ratios in any dose levels except minimal changes in the reticulocytes and adrenal glands.
The 14-day dose-range inhalation toxicology study was conducted at Charles River Laboratories Edinburgh Ltd, Elphinstone Research Centre, Tranent, East Lothian, EH33 2NE, UK, under the Home Office Project License No. PPL 70/8778, Toxicology of Pharmaceuticals. The UK Home Office controls scientific procedures on animals in the UK and does so by the issue of licences under the Animals (Scientific Procedures) Act 1986. The regulations conform to EU Directive 2010/63/EU and achieve the standard of care required by the US Department of Health and Human Services' Guide for the Care and Use of Laboratory Animals.
The toxicology study was done in SD (Sprague Dawley) rats that were exposed to PCCR-1 aerosol for 60 min daily at 3.4, 10.8 and 32.1 mg/kg/day (delivered dose) for 14 days using a snout only exposure technique via a modular stainless steel flow past inhalation chamber. A 60% w/w blend of PCCR-1 in Lactose LH201 was prepared by adding the appropriate amount of PCCR-1 to the appropriate amount of lactose. The estimated delivered doses were derived based on analytical aerosol concentration, and respiratory minute volume calculated based on body weight, exposure duration, and animal body weight (Supplementary section B).

[5] = Females (n = 5/group), 32.1 mg/kg/day
[6] = Males (n = 5/group), 32.1 mg/kg/day

In the case of `CCn1c(C(C)(C)Oc2ccc(F)cc2F)nc2cc(NC(=O)Cc3ccc(S(=O)(=O)CC)cc3)ccc21` [PCCR-1], the IC50 [1] is reported as 3660 nM, the IC50 [2] is reported as 1390 nM and the “% Inhibition RXR” value (RXR; 1 µM) is reported as 0.00%. The “% Inhibition RXR” value (RXR; 10 µM) was 8.24%, the “Fold over hRORγ, RXR” value (RXR; vs RORg IC50 31.87 nM) was over 313.7 fold and the “ceiling effect for IL-22 release inhibition” value [3] was 60%. The IC50 ([3]; n = 2, read-out: hIL-22 IC50) was 43.8 nM, the “Microscopic changes: Hypertrophy; zona fasciculata, diffuse (animals affected)” value [4, 5] was 3 and the “Microscopic changes: hypertrophy, Mild (animals affected)” value [4, 5] was 2. For the same compound, the “Microscopic changes: hypertrophy, Minimal (animals affected)” value [4, 5] was 1, the “adrenal gland Absolute weight (mean ± SD)” value ([4]; Females, 32.1 mg/kg/day) was 0.0950 ± 0.0139 g and the “adrenal gland weight Relative to body weight (mean ± SD)” value ([4]; Females, 32.1 mg/kg/day) was 0.03168 ± 0.00549%. For the same compound, the “adrenal gland weight Relative to brain weight (mean ± SD)” value ([4]; Females, 32.1 mg/kg/day) was 4.657 ± 0.6176%, the “Reticulocyte count (mean ± SD)” value ([4]; Females, 32.1 mg/kg/day, P ≤ 0.01) was 295.4 ± 40.3* 10^9/L and the “Microscopic changes: Hypertrophy; zona fasciculata, diffuse (animals affected)” value [4, 6] was 0. For the same compound, the “Microscopic changes: hypertrophy, Mild (animals affected)” value [4, 6] was 0, the “Microscopic changes: hypertrophy, Minimal (animals affected)” value [4, 6] was 0 and the “Reticulocyte count (mean ± SD)” value ([4]; Males, 32.1 mg/kg/day) was 287.7 ± 62.6 10^9/L. For the same compound, the “adrenal gland Absolute weight (mean ± SD)” value ([4]; Males, 32.1 mg/kg/day) was 0.0581 ± 0.0083 g, the “adrenal gland weight Relative to body weight (mean ± SD)” value ([4]; Males, 32.1 mg/kg/day) was 0.01553 ± 0.00171% and the “adrenal gland weight Relative to brain weight (mean ± SD)” value ([4]; Males, 32.1 mg/kg/day) was 2.803 ± 0.3041%. The MTD at 14 days ([4]; Sprague Dawley, in vivo, inhaled or intranasal, rat, 14-day inhalation, read-out: maximum tolerated dose) was 32.1 mg/kg/day, the “Microscopic changes: hypertrophy, Minimal (animals affected)” value ([4]; female, Sprague-Dawley, rat, in vivo, 14 days) was 0 and the “histopathological change of the adrenal gland” value ([4]; rat, in vivo) was “bilateral diffuse hypertrophy of the zona fasciculata”. The “reticulocyte count compared with the control group” value ([4]; rat, in vivo) was 1.09 fold.
